In assay [1] the target is Ribosomal protein S6 kinase alpha-2 (Homo sapiens) (UniProt Q15349). The assay can be described thus: Inhibition of human full length RSK3 expressed in baculovirus assessed as substrate phosphorylation using fluorescence-labelled peptides as substrate at 0.1 uM after 90 mins by microfluidic peptide phosphorylation assay.
In assay [2] the target is T1, Serine/threonine-protein kinase D3 (Homo sapiens) (UniProt O94806).
T1 sequence (whole entry): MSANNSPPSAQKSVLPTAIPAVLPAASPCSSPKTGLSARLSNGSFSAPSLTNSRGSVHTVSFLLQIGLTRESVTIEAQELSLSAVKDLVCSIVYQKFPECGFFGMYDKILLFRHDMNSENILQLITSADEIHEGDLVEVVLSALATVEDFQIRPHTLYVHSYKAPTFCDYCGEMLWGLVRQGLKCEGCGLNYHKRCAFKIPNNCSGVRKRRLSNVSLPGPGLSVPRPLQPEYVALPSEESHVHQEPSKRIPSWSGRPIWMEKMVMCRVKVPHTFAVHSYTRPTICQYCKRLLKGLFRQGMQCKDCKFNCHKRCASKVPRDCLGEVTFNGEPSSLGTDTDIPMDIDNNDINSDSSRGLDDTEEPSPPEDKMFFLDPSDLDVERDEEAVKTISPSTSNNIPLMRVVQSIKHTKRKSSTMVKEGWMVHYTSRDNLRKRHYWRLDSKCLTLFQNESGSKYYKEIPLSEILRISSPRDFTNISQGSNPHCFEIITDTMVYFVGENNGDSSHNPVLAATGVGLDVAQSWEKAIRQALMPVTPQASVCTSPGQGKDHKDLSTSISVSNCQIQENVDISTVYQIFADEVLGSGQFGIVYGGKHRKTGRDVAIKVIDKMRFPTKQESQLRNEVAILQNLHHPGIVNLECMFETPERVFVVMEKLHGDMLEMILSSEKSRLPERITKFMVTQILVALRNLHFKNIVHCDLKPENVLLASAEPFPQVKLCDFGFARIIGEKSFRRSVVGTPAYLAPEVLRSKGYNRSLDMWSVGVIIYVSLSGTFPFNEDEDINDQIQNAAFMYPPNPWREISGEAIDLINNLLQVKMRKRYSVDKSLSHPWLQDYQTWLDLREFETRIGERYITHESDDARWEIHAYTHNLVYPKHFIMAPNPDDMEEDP
The experiment in a line: Inhibition of human full length PKD3 expressed in baculovirus assessed as substrate phosphorylation using fluorescence-labelled peptides as substrate at 0.06 uM after 90 mins by microfluidic peptide phosphorylation assay.

Assay [3] addresses Tyrosine-protein kinase Lck (Homo sapiens) (UniProt P06239). The experiment in a line: Inhibition of human full length LCK expressed in baculovirus assessed as substrate phosphorylation using fluorescence-labelled peptides as substrate at 95 uM after 90 mins by microfluidic peptide phosphorylation assay.
Assay [4] has as its target MAP kinase p38 (Homo sapiens) (UniProt O15264+Q15759+Q16539+P53778). The experiment in a line: Inhibition of human full length p38 beta2 expressed in Escherichia coli cell assessed as substrate phosphorylation using fluorescence-labelled peptides as substrate at 95 uM after 90 mins by microfluidic peptide phosphorylation assay.
The target of assay [5] is Platelet-derived growth factor receptor alpha (Homo sapiens) (UniProt P16234). The assay can be described thus: Inhibition of human PDGFR alpha catalytic domain expressed in baculovirus assessed as substrate phosphorylation using fluorescence-labelled peptides as substrate at 95 uM after 90 mins by microfluidic peptide phosphorylation assay.
For assay [6], the target named is Hepatocyte growth factor receptor (Homo sapiens) (UniProt P08581). The assay can be described thus: Inhibition of human MET cytoplasmic domain expressed in baculovirus assessed as substrate phosphorylation using fluorescence-labelled peptides as substrate at 8 uM after 90 mins by microfluidic peptide phosphorylation assay.
Assay [7] has as its target Calcium/calmodulin-dependent protein kinase type II subunit gamma (Homo sapiens) (UniProt Q13555). The assay can be described thus: Inhibition of human CAMK2 gamma catalytic domain expressed in baculovirus assessed as substrate phosphorylation using fluorescence-labelled peptides as substrate at 70 uM after 90 mins by microfluidic peptide phosphorylation assay.
In assay [8] the target is T2, Serine/threonine-protein kinase Sgk3 (Homo sapiens) (UniProt Q96BR1).
T2 sequence (whole entry): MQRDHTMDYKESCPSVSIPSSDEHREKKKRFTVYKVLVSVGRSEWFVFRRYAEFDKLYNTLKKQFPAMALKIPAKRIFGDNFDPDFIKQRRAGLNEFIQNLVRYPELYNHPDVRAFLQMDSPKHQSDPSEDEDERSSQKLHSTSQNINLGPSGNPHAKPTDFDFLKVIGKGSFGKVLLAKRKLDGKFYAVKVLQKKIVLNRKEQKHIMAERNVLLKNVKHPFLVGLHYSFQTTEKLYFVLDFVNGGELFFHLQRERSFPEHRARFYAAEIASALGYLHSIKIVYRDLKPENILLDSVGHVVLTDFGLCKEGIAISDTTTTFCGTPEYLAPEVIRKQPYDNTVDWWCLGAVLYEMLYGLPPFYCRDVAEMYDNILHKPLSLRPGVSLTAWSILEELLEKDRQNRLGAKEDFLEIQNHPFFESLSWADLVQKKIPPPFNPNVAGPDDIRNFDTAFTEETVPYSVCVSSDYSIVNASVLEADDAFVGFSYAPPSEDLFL
The experiment in a line: Inhibition of human full length SGK3 expressed in baculovirus assessed as substrate phosphorylation using fluorescence-labelled peptides as substrate at 70 uM after 90 mins by microfluidic peptide phosphorylation assay.

The species entered for assay [9] is Homo sapiens. The experiment in a line: Inhibition of human P70S6K catalytic domain expressed in baculovirus assessed as substrate phosphorylation using fluorescence-labelled peptides as substrate at 420 uM after 90 mins by microfluidic peptide phosphorylation assay.
In assay [10] the target is Ribosomal protein S6 kinase alpha-4 (Homo sapiens) (UniProt O75676). The assay can be described thus: Inhibition of human full length MSK2 expressed in baculovirus assessed as substrate phosphorylation using fluorescence-labelled peptides as substrate at 420 uM after 90 mins by microfluidic peptide phosphorylation assay.
Assay [11] deals with T3, Interleukin-1 receptor-associated kinase 4 (Homo sapiens) (UniProt Q9NWZ3).
T3 sequence (whole entry): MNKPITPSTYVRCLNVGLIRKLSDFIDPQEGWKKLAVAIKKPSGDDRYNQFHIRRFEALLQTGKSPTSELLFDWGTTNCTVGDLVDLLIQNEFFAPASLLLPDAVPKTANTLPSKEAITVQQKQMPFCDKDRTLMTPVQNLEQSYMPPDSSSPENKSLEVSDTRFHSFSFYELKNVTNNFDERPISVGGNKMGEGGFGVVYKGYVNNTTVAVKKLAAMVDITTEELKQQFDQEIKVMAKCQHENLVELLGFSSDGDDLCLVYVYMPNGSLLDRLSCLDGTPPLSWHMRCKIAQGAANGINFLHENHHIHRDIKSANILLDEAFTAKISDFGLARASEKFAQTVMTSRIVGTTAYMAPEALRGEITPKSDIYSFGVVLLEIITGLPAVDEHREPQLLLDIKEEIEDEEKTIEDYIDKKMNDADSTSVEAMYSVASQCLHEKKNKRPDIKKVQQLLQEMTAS
The assay can be described thus: Inhibition of human IRAK4 catalytic domain expressed in baculovirus assessed as substrate phosphorylation using fluorescence-labelled peptides as substrate at 1000 uM after 90 mins by microfluidic peptide phosphorylation assay.

This is an account of results in ChEMBL document CHEMBL3132769, “Fragment growing to retain or alter the selectivity of anchored kinase hinge-binding fragments” (Medchemcomm, 2014).

For orientation: inhibition means the percentage by which the read-out fell short of the control.

Molecules are shown by their SMILES.

Calcium/calmodulin-dependent protein kinase type II subunit gamma (Homo sapiens), sequence (Q13555 whole entry, the tested form may be a part): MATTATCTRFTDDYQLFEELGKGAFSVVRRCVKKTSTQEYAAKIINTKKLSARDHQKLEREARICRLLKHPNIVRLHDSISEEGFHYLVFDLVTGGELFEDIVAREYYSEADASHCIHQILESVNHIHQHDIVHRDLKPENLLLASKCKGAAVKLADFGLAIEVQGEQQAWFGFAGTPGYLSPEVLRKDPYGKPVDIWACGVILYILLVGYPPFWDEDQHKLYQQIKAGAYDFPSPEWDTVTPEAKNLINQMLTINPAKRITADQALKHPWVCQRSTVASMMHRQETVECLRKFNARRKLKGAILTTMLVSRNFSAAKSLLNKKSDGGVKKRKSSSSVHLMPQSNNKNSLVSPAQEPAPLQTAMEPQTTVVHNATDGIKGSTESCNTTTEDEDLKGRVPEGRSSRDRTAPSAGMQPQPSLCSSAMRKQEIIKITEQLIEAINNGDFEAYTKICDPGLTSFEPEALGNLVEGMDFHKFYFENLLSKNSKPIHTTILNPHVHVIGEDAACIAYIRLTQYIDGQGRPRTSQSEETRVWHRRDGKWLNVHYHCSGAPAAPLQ
Tyrosine-protein kinase Lck (Homo sapiens), sequence (P06239 2-509 limits assumed): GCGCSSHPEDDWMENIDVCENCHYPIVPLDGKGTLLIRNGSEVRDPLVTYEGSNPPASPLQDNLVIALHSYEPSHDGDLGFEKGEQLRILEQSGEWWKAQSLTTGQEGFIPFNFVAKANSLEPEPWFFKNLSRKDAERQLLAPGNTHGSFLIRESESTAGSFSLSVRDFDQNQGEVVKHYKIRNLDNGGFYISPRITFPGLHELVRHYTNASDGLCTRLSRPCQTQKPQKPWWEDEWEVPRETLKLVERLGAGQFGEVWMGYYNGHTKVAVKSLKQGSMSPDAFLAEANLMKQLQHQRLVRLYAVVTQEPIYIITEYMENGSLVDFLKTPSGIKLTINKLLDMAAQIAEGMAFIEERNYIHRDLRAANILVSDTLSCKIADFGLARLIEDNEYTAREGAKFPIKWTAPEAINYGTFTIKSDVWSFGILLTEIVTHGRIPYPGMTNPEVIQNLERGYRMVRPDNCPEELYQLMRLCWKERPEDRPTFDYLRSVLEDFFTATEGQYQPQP
Platelet-derived growth factor receptor alpha (Homo sapiens), sequence (P16234 whole entry, the tested form may be a part): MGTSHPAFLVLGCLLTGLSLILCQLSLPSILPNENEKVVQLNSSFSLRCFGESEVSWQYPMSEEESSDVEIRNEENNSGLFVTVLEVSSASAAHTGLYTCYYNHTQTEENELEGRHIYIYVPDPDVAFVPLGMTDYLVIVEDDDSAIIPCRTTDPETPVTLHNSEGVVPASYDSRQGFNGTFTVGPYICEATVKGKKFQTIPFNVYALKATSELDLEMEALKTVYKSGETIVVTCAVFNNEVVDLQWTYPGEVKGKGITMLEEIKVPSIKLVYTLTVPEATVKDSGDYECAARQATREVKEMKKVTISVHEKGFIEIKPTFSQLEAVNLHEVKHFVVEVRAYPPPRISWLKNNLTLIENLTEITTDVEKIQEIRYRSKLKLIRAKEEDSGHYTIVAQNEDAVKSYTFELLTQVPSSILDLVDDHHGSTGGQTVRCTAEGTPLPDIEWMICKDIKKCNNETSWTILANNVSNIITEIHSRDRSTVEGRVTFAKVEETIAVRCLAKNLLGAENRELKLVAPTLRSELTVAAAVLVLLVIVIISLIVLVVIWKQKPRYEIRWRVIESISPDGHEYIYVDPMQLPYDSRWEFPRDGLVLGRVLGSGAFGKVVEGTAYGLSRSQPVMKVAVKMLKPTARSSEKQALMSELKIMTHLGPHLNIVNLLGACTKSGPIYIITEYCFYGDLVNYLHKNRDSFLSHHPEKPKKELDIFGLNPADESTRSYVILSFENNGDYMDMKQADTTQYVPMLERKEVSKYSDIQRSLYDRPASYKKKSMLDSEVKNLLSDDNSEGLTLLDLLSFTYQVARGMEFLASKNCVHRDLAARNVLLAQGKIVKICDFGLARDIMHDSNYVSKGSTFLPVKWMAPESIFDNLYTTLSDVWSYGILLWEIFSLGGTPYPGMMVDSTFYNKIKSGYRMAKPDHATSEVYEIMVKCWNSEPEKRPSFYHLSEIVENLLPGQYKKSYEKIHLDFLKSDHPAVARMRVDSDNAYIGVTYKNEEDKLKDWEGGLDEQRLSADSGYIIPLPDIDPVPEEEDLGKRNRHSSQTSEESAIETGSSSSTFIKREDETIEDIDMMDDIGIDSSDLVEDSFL
MAP kinase p38 (Homo sapiens), sequence (O15264 whole entry, looked up, the tested form may be a part): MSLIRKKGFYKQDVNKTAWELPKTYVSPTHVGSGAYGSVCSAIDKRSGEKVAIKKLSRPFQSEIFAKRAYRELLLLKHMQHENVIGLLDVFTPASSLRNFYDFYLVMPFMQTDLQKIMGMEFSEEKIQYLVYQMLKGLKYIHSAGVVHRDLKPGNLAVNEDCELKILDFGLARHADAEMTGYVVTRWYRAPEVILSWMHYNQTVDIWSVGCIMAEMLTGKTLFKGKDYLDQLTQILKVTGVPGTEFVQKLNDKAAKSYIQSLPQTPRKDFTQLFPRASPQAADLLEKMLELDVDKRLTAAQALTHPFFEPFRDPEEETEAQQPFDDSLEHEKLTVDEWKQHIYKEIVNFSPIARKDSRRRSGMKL
MAP kinase p38 (Homo sapiens), sequence (P53778 whole entry, looked up, the tested form may be a part): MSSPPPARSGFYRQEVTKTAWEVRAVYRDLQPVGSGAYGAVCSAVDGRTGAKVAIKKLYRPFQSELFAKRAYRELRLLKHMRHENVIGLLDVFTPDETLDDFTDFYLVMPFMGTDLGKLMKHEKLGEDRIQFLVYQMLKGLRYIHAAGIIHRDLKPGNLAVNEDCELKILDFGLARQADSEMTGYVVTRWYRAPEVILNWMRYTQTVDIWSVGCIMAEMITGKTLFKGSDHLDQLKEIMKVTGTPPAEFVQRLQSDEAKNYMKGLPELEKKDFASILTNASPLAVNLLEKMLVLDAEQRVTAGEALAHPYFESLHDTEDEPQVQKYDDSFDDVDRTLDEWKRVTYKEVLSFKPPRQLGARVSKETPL
MAP kinase p38 (Homo sapiens), sequence (Q15759 whole entry, looked up, the tested form may be a part): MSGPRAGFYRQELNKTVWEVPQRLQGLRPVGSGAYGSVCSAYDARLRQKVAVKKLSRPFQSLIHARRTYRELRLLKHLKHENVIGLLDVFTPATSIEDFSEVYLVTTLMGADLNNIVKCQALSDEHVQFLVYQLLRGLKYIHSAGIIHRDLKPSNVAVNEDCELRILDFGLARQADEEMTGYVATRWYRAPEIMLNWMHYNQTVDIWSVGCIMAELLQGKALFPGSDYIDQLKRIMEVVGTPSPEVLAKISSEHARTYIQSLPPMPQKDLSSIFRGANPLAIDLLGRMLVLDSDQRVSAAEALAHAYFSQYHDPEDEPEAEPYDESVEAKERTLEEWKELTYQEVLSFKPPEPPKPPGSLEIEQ
MAP kinase p38 (Homo sapiens), sequence (Q16539 whole entry, looked up, the tested form may be a part): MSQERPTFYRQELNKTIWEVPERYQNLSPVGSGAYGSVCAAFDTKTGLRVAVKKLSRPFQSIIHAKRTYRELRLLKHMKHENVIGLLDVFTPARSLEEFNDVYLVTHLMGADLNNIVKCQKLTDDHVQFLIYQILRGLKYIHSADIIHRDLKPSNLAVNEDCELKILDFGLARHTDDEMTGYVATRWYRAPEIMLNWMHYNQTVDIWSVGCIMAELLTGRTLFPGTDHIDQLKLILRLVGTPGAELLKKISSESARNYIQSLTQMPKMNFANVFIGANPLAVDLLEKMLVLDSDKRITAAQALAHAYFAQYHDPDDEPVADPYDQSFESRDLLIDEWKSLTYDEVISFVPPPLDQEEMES
Ribosomal protein S6 kinase alpha-2 (Homo sapiens), sequence (Q15349 whole entry): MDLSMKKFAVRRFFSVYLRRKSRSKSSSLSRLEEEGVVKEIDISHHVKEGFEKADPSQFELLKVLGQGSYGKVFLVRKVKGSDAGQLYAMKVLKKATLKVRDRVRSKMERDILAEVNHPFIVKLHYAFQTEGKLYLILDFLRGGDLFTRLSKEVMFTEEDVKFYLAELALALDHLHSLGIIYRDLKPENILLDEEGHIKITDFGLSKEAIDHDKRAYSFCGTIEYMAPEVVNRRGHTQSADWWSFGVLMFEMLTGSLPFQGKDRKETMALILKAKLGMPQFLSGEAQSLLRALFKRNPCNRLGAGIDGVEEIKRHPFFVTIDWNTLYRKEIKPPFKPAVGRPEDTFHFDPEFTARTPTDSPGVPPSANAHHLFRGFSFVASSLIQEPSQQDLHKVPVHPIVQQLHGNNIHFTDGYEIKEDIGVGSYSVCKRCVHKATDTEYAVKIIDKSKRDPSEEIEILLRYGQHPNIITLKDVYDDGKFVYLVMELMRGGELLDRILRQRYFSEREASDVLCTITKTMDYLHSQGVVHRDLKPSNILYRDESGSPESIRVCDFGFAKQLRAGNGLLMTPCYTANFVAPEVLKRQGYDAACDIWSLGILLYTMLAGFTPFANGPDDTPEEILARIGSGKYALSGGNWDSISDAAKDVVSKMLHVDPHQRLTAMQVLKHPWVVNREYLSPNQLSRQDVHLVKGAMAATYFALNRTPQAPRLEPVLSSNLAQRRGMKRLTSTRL

`C[C@H](CN(C)C)Oc1nc(Nc2cc3cccc(Cl)c3cn2)cnc1C#N`: in [1], the inhibition is 60.5%.
On to `NC1(Cc2ccc(Cl)cc2)CCN(c2ncnc3[nH]ccc23)CC1`, for which the inhibition in assay [2] worked out at 0%.
As for `NCCc1ccc(-c2ncnc3[nH]cnc23)cc1`, the inhibition is 68.5% in [3], 11% in assay [4] and 37% in assay [5].
In the case of `NCC1CCN(c2ncnc3[nH]ccc23)CC1`, the inhibition in [6] is 9%.
Regarding `CNCc1ccc(-c2ncnc3[nH]cnc23)cc1`, the inhibition in assay [7] came to 16%; in [8], 58%.
On to `c1nc(N2CCOCC2)c2nc[nH]c2n1`, for which the inhibition in [9] worked out at 84.5%; in [10] it was 76%.
For the compound `c1cnc2[nH]ccc2c1`, the inhibition in assay [11] turned out to be 65%.
